Measurements published in PubChem BioAssay (NCI).
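A five-concentration, 48-hour dose response in 96-well plates underlies each endpoint, interpolated linearly between surrounding concentrations. The concentration for 50% growth inhibition is given as GI50. TGI is the concentration that stops growth completely.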

Key:
Assay in all cases: inhibition of tumour cell growth, NCI panel, 48 h
M14 melanoma = test system: M14 melanoma
SW-620 colon = test system: SW-620 colon
IGROV1 ovarian = test system: IGROV1 ovarian
SNB-19 CNS = test system: SNB-19 CNS
LOX IMVI melanoma = test system: LOX IMVI melanoma
NCI-H226 lung = test system: NCI-H226 lung
SF-539 CNS = test system: SF-539 CNS
NCI/ADR-RES ovarian = test system: NCI/ADR-RES ovarian
BT-549 breast = test system: BT-549 breast
MCF7 breast = test system: MCF7 breast

Structure (SMILES) | GI50 (M14 melanoma) [µM] | TGI (M14 melanoma) [µM] | GI50 (SW-620 colon) [µM] | TGI (SW-620 colon) [µM] | GI50 (IGROV1 ovarian) [µM] | TGI (IGROV1 ovarian) [µM] | GI50 (SNB-19 CNS) [µM] | TGI (SNB-19 CNS) [µM] | GI50 (LOX IMVI melanoma) [µM] | TGI (LOX IMVI melanoma) [µM] | GI50 (NCI-H226 lung) [µM] | TGI (NCI-H226 lung) [µM] | GI50 (SF-539 CNS) [µM] | TGI (SF-539 CNS) [µM] | GI50 (NCI/ADR-RES ovarian) [µM] | TGI (NCI/ADR-RES ovarian) [µM] | GI50 (BT-549 breast) [µM] | TGI (BT-549 breast) [µM] | GI50 (MCF7 breast) [µM] | TGI (MCF7 breast) [µM]
CCc1c(C#N)c(S[C@@H](C(N)=O)c2ccccc2)nc(N(C)C)c1C#N | > 100 | > 100 | > 100 | > 100 | 7.14 | > 100 | 3.46 | 21.5 | > 100 | > 100 | 4.76 | > 100 | 4.65 | > 100 | – | – | – | – | – | –
CC1(c2cccc3ccccc23)OC(=O)c2ccccc21 (stereo unspecified) | – | 37.2 | – | 68.2 | – | 55.3 | – | > 100 | – | 42.8 | – | 48.3 | – | 30.2 | – | – | – | – | – | –
O=C(CC1(O)C(=O)Nc2c(Cl)ccc(Cl)c21)c1ccc2ccccc2c1 (stereo unspecified) | – | 21.3 | – | 12.5 | – | 41.4 | – | 53 | – | 31.9 | – | 39.1 | – | 35.5 | – | – | – | – | – | –
CCC/C(=N/N=C(N)N)c1ccc(NC(=O)c2cc3cc(OC)ccc3[nH]2)cc1 | – | – | 3.6 | 20.1 | 20.2 | 56.9 | 13.6 | 35.8 | – | – | 14.7 | 41.7 | 8.65 | 30.8 | 79.7 | > 100 | 13.5 | 53.5 | 2.76 | 12.2
N#CC(C(=O)/C(=N/N)C(C#N)c1ccccc1)c1ccccc1 (stereo unspecified) | – | > 100 | – | > 100 | – | > 100 | – | > 100 | – | > 100 | – | > 100 | – | > 100 | – | – | – | – | – | –
CC(=O)OC[C@]1(O)CC[C@@]23CC1C[C@@H]2CCC1C(C)(C)CCC[C@@]13C (stereo partly specified) | – | 26.9 | – | 22.5 | – | 34.5 | – | 27.6 | – | 23.3 | – | 32.7 | – | 30.4 | – | – | – | – | – | –
O=c1ccn(C2OC(CO/N=C/c3ccc(O)c(O)c3O)C(O)C2O)c(=O)[nH]1 (stereo unspecified) | 39 | > 100 | 19.1 | 35.9 | 19.4 | 38.5 | – | – | 16.1 | 32.2 | > 100 | > 100 | 52.1 | > 100 | 20.5 | 49 | 68.4 | > 100 | 18.8 | 37.6
O=C1c2cc3c(cc2-c2c1c1ccc(Cl)cc1c(=O)n2CCCNCCO)OCO3 | 0.0574 | 1.67 | 0.0506 | 0.366 | – | – | – | – | 0.0467 | 1.3 | 0.052 | 1.55 | 0.242 | 1.35 | 0.0585 | 1.9 | 0.941 | 2.49 | 0.0176 | 0.179
O=C1C(Cl)=C(Nc2cccc(Cl)c2)C(=O)N1Cc1ccccc1Cl | 4.41 | 19.4 | 2.82 | 18.6 | 12.3 | 73.8 | – | – | 1.64 | 3.76 | 0.296 | 2.9 | 3.8 | 15 | – | – | 4.31 | 26 | 5.18 | 21.2
O=c1cc2ccccc2nn1Cc1cccc(Cl)c1 | – | > 100 | – | > 100 | – | > 100 | – | > 100 | – | > 100 | – | > 100 | – | > 100 | – | – | – | – | – | –
CC(C)(C)c1nn(-c2ccccc2)c2c1C(=O)CSC(c1ccccc1Cl)N2 (stereo unspecified) | 1.18 | 6.45 | – | – | 3.52 | 43 | 2.54 | 15.2 | 2.74 | 15.7 | 1.61 | 5.97 | 2.36 | 10.1 | 0.632 | 7.54 | 2.91 | 12.9 | 1.03 | 13.5
Oc1ccccc1C=NCc1ccco1 | – | > 100 | – | > 100 | – | > 100 | – | > 100 | – | > 100 | – | > 100 | – | > 100 | – | – | – | – | – | –
O=NNc1ccc(S(=O)(=O)c2ccccc2)cn1 | – | > 100 | – | > 100 | – | > 100 | – | > 100 | – | – | – | > 100 | – | > 100 | – | > 100 | – | > 100 | – | > 100
CCC/C(=N/NC(=O)C(N)=O)C(CC)C(=O)CCC(=O)N(Cc1ccccc1)Cc1ccccc1 (stereo unspecified) | – | > 100 | – | > 100 | – | > 100 | – | > 100 | – | > 100 | – | > 100 | – | > 100 | – | – | – | – | – | –
COc1cc(/C=C(\C#N)C(=O)c2ccccc2)ccc1O | – | > 100 | – | > 100 | – | > 100 | – | > 100 | – | > 100 | – | > 100 | – | > 100 | – | – | – | – | – | –
N#CC(C(=O)CCC(=O)C(C#N)c1ccccc1)c1ccccc1 (stereo unspecified) | – | > 100 | – | > 100 | – | > 100 | – | > 100 | – | > 100 | – | > 100 | – | > 100 | – | – | – | – | – | –
CC(=O)[CH-]C(=O)c1ccccc1.CC(=O)[CH-]C(=O)c1ccccc1.CC1(C)C2CCC1(C)C([O-])C2.CC1(C)C2CCC1(C)C([O-])C2.[Ti+4] | 20.4 | 44.1 | 36.6 | > 100 | 25.3 | 85.8 | 25.8 | 97.7 | 25.1 | > 100 | 23.2 | 90.7 | 17.8 | 45.9 | – | – | – | – | – | –
CCCCCCCCCCCCCC(=O)CC(=O)c1c(O)cccc1O | – | > 100 | – | 50.2 | – | > 100 | – | 99.2 | – | 36.3 | – | 80.3 | – | > 100 | – | – | – | – | – | –
N#C/C(=C/c1ccc[nH]1)P(=O)(O)O | – | > 100 | – | > 100 | – | – | – | > 100 | – | > 100 | – | > 100 | – | > 100 | – | – | – | – | – | –
CC(=O)[CH-]C(=O)c1ccccc1.CC(=O)[CH-]C(=O)c1ccccc1.[Eu+3].[OH-].[OH3+] | > 100 | > 100 | > 100 | > 100 | > 100 | > 100 | > 100 | > 100 | > 100 | > 100 | – | – | > 100 | > 100 | – | – | – | – | – | –
Clc1cc(Cc2cc(Cl)c(Cl)c3c2OCOC3)c2c(c1Cl)COCO2 | – | > 100 | – | > 100 | – | > 100 | – | > 100 | – | > 100 | – | 72.9 | – | 52.3 | – | – | – | – | – | –
